Measured values reported in ChEMBL document CHEMBL1147284, “Alkaloids from the Leaves of Prosopis juliflora” (J Nat Prod, 1989).
Active and inactive are the calls of the source.

Tests used:
Format in all cases: functional, organism-based
Pseudomonas aeruginosa = experiment: Antibacterial activity against Pseudomonas aeruginosa PAO1 HER 1018 after 24 hrs
Staphylococcus aureus = experiment: Antibacterial activity against Staphylococcus aureus B827 after 24 hrs
Shigella sonnei = experiment: Antibacterial activity against Shigella sonnei YER HER 1048 after 24 hrs
Escherichia coli [1] = experiment: Antibacterial activity against Escherichia coli 11303 HER 1024 after 24 hrs
Escherichia coli [2] = experiment: Antibacterial activity against Escherichia coli K125 HER 1037 after 24 hrs
Klebsiella pneumoniae = experiment: Antibacterial activity against Klebsiella pneumoniae C3 HER 1111 after 24 hrs

Measured: Activity

C[C@@H]1N[C@H](CCCCCCCCCCc2cc(CCCCCCCCC[C@@H]3CC[C@H](O)[C@H](C)N3)c[n+]3c2C=CC3)CC[C@@H]1O
active: all assays above
